Results on one compound are retold here after patent publication US20030166629A1, “Cyclic quaternary ammonium compounds” (priority 1999, published 2003).

The test system of the experiment is citric acid-induced cough responses. Briefly: Antitussive activity against citric acid aerosol-induced cough in conscious guinea-pigs. Particulars: aerosol pre-treatment at 5.0 mg/ml for 5 minutes immediately before citric acid (1M) exposure, vehicle 25% ethanol, 15 minute observation period. The class given is in vivo, guinea-pig. From the text: The following method is one of the general methods available to determine the antitussive activity of the compounds of the present invention.
Male albino Dunkin-Hartley strain guinea-pigs (weight 300-400 g) can be obtained from various commercial suppliers.
The method is a modification of that described by Adcock J. J., Schneider C. and Smith T. W., “Effects of Morphine and a Novel Opioid Pentapeptide BW443C, on Cough, Nociception and Ventilation in the Unanaesthetized Guinea-pig”, Br. J. Pharmacol., 93, 93-100 (1988). […]
Cylinder air is introduced into the exposure chamber at a flow rate of 1 liter/min, maintained by a needle valve and monitored by a rotameter. […]
Cough responses are induced by exposure to an aerosol of citric acid (1M) for 10 minutes. Animals are continuously monitored by trained observer, and the number of coughs are counted during a 15 minute period from commencement of the citric acid aerosol administration. […]
The three types of response are differentiated primarily by sound and visual observation. […] Each cough is marked on the Grass polygraph paper trace, and from these record numbers, frequency and time of onset of coughs are determined. […]
Quantities of drugs are weighed out and dissolved in a vehicle. […] The sequence of pre-treatment administration is determined according to a 4×4 Latin Square design. […]

Some results are limits rather than exact numbers.

Take `CCCCC[N+]1(C)CCCCC1C(=O)Nc1c(C)cccc1C.[I-]` (stereo not shown) [N-methyl-bupivacaine iodide, 2-{[(2,6-Dimethylphenyl)amino]carbonyl}-1-methyl-1-pentylpiperidinium iodide]: the “inhibition of cough responses compared with vehicle pre-treated guinea pigs” value is more than 90%.
